Values of other authors, collected in patent publication US20190343827A1, “DEUTERATED ANALOGS OF TARIQUIDAR” (Izumi Technology, LLC, priority 2018, published 2019).

Tests used:
[1] = test system: refractory solid tumors
[2] = test system: non-small-cell lung cancer; conditions: co-administration with paclitaxel or carboplatin
[3] = patients with lung, ovarian and cervical cancer

clearance of docetaxel and vinorelbine ([1]; co-administered with tariquidar, compared to historic data in absence of tariquidar): reduced
docetaxel disposition as a result of tariquidar co-administration [3]: No significant differences
Compound: COc1cc2c(cc1OC)CN(CCc1ccc(NC(=O)c3cc(OC)c(OC)cc3NC(=O)c3cnc4ccccc4c3)cc1)CC2 [Tariquidar, N-[2-[[4-[2-(6,7-dimethoxy-3,4-dihydro-1H-isoquinolin-2-yl)ethyl]phenyl]carbamoyl]-4,5-dimethoxyphenyl]quinoline-3-carboxamide]
clinical response ([1]; children and adolescents with refractory solid tumors, 29 patients): low
complete response, number of patients ([1]; out of 29 patients): one
partial response, number of patients ([1]; out of 29 patients): two
study outcome, toxicity [2]: terminated early due to toxicity
